# ChEMBL document CHEMBL1142601, “Biphenyl glycosides from the fruit of Pyracantha fortuneana” (J Nat Prod, 2006)
# Molecular target: T1, Tyrosinase (Homo sapiens, UniProt P14679)
# T1 sequence (P14679 whole entry): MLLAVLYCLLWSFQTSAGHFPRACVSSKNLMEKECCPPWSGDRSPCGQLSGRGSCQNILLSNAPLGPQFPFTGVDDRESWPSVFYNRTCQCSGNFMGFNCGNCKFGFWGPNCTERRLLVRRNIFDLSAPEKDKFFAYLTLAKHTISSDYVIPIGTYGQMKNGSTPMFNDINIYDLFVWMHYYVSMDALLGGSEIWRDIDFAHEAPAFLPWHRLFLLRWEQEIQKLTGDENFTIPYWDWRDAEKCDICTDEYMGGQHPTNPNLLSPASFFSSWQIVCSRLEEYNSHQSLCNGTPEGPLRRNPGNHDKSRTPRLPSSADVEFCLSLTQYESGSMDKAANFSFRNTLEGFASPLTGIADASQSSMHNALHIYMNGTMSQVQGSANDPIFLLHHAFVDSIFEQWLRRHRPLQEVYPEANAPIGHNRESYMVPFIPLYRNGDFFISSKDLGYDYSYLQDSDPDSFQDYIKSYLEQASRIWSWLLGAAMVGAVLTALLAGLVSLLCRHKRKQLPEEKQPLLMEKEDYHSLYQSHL
# Test: Inhibition of tyrosinase
row,IC50,SMILES
1,70 µM,COc1cc(-c2cccc(O[C@@H]3O[C@H](CO)[C@@H](O)[C@H](O)[C@H]3O)c2O)cc(OC)c1O [FORTUNEANOSIDE D]
2,450 µM,COc1cc(-c2ccccc2O[C@@H]2O[C@H](CO)[C@@H](O)[C@H](O)[C@H]2O)cc(OC)c1O [FORTUNEANOSIDE C]
3,2210 µM,COc1ccccc1-c1cc(OC)c(O)c(OC)c1O[C@@H]1O[C@H](CO)[C@@H](O)[C@H](O)[C@H]1O [FORTUNEANOSIDE B]
4,140 µM,COc1cc(-c2ccc(O[C@@H]3O[C@H](CO)[C@@H](O)[C@H](O)[C@H]3O)c(O)c2)cc(OC)c1O [FORTUNEANOSIDE E]
